Bridge positions count the residues as written; N and C are the ends. Square brackets hold non-standard residues; d marks the D form. Peptide text beside a SMILES is read from it. * marks the point of attachment. DOTA = O=C(O)CN1CCN(CC(=O)O)CCN(CC(=O)*)CCN(CC(=O)O)CC1; Phe(4-CF3) = N[C@@H](Cc1ccc(C(F)(F)F)cc1)C(=O)O; Phe(4-COOH) = N[C@@H](Cc1ccc(C(=O)O)cc1)C(=O)O; Phe(3-F) = N[C@@H](Cc1cccc(F)c1)C(=O)O; Phe(4-F) = N[C@@H](Cc1ccc(F)cc1)C(=O)O; Carboxymethyl = O=C(O)C*; Ahx = NCCCCCC(=O)O Bounds are passed on as bounds.

Broadly, the Kd is the concentration at which binding is half-saturated.

The target in this experiment is T1, human DLL3 (Homo sapiens, UniProt Q9NYJ7).
T1 construct: biotin (biotinylated)
T1 sequence (Q9NYJ7 27-618): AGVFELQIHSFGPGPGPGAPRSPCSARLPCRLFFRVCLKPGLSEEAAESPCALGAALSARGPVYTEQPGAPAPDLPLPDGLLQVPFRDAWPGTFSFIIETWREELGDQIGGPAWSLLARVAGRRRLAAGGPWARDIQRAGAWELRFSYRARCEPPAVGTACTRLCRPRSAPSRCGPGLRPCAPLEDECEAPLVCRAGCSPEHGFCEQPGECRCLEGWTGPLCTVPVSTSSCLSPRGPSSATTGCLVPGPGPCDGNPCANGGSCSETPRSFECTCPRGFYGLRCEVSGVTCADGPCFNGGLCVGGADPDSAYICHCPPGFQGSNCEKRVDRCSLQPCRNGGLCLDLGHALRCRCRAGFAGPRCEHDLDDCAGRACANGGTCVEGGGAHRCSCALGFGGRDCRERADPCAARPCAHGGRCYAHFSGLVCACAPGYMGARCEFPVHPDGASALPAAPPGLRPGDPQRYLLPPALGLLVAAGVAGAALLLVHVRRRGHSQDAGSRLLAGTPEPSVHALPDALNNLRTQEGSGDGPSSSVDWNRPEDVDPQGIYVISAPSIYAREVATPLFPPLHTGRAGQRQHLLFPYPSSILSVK
Nature of the experiment: Affinity determination by Surface Plasmon Resonance (SPR), Biacore, 1:1 binding model. Conditions: biotinylated human DLL3 on streptavidin chip, 25° C.; NB = nonbinding. The gist of the method:
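SPR with biotinylated human DLL3 captured on a streptavidin chip, with a reference surface subtracted. Samples were injected at several concentrations at 100 μL/min in phosphate buffer with 137 mM NaCl, 2.7 mM KCl, 0.05% P20 and 2% DMSO. Kinetic and affinity constants came from a 1:1 binding fit.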
In the case of `CC(C)C[C@@H]1NC(=O)[C@H](Cc2c[nH]c3ccccc23)NC(=O)[C@@H](NC(=O)[C@H](CC(=O)O)NC(=O)[C@H](CO)NC(=O)CCCCCNC(=O)CN2CCN(CC(=O)O)CCN(CC(=O)O)CCN(CC(=O)O)CC2)CSSC[C@@H](C(=O)N2CCC[C@H]2C(=O)N[C@@H](Cc2ccc(F)cc2)C(=O)N[C@@H](CC(=O)O)C(N)=O)NC(=O)[C@H](CC(N)=O)NC(=O)[C@H](Cc2c[nH]c3ccccc23)NC(=O)[C@H](CCC(N)=O)NC1=O` [compound 33, DOTA-Ahx-S-D-C(3)-W-L-Q-W-N-C(3)-P-(4Fluoro-F)-D-CONH2] ({DOTA-Ahx}-SDCWLQWNCP[Phe(4-F)]D-NH2; disulfide 3-9), the Kd is more than 300 nM.
The figure for `CC(C)C[C@@H]1NC(=O)[C@H](Cc2c[nH]c3ccccc23)NC(=O)[C@@H](NC(=O)[C@H](CC(=O)O)NC(=O)[C@H](CO)NC(=O)CCCCCNC(=O)CN2CCN(CC(=O)O)CCN(CC(=O)O)CCN(CC(=O)O)CC2)CSSC[C@@H](C(=O)N2CCC[C@H]2C(=O)N[C@@H](Cc2ccc(C(F)(F)F)cc2)C(=O)N[C@@H](CC(=O)O)C(N)=O)NC(=O)[C@H](CC(N)=O)NC(=O)[C@H](Cc2c[nH]c3ccccc23)NC(=O)[C@H](CCC(N)=O)NC1=O` [compound 34, DOTA-Ahx-S-D-C(3)-W-L-Q-W-N-C(3)-P-(4CF3-F)-D-CONH2] ({DOTA-Ahx}-SDCWLQWNCP[Phe(4-CF3)]D-NH2; disulfide 3-9) is more than 300 nM; for `CC(C)C[C@@H]1NC(=O)[C@H](Cc2c[nH]c3ccccc23)NC(=O)[C@@H](NC(=O)[C@H](CC(=O)O)NC(=O)[C@H](CO)NC(=O)CCCCCNC(=O)CN2CCN(CC(=O)O)CCN(CC(=O)O)CCN(CC(=O)O)CC2)CSSC[C@@H](C(=O)N2CCC[C@H]2C(=O)N[C@@H](Cc2ccc(C(=O)O)cc2)C(=O)N[C@@H](CC(=O)O)C(N)=O)NC(=O)[C@H](CC(N)=O)NC(=O)[C@H](Cc2c[nH]c3ccccc23)NC(=O)[C@H](CCC(N)=O)NC1=O` [compound 35, DOTA-Ahx-S-D-C(3)-W-L-Q-W-N-C(3)-P-(4COOH-F)-D-CONH2] ({DOTA-Ahx}-SDCWLQWNCP[Phe(4-COOH)]D-NH2; disulfide 3-9) it is more than 100 nM.
For the compound `CC(C)C[C@@H]1NC(=O)[C@H](Cc2c[nH]c3ccccc23)NC(=O)[C@@H](NC(=O)[C@H](CC(=O)O)NC(=O)[C@H](CO)NC(=O)CCCCCNC(=O)CN2CCN(CC(=O)O)CCN(CC(=O)O)CCN(CC(=O)O)CC2)CSSC[C@@H](C(=O)N2CCC[C@H]2C(=O)N[C@@H](Cc2cccc(F)c2)C(=O)N[C@@H](CC(=O)O)C(N)=O)NC(=O)[C@H](CC(N)=O)NC(=O)[C@H](Cc2c[nH]c3ccccc23)NC(=O)[C@H](CCC(N)=O)NC1=O` [compound 36, DOTA-Ahx-S-D-C(3)-W-L-Q-W-N-C(3)-P-(3Fluoro-F)-D-CONH2] ({DOTA-Ahx}-SDCWLQWNCP[Phe(3-F)]D-NH2; disulfide 3-9), binding was characterised by a dissociation constant (Kd) of 16 nM.
The figure for `CC(C)C[C@@H]1NC(=O)[C@H](Cc2c[nH]c3ccccc23)NC(=O)[C@@H](NC(=O)[C@H](CC(=O)O)NC(=O)[C@H](CO)NC(=O)CCCCCNC(=O)CN2CCN(CC(=O)O)CCN(CC(=O)O)CCN(CC(=O)O)CC2)CSSC[C@@H](C(=O)N2CCC[C@H]2C(=O)N[C@@H](Cc2ccc(OCC(=O)O)cc2)C(=O)N[C@@H](CC(=O)O)C(N)=O)NC(=O)[C@H](CC(N)=O)NC(=O)[C@H](Cc2c[nH]c3ccccc23)NC(=O)[C@H](CCC(N)=O)NC1=O` [compound 37, DOTA-Ahx-S-D-C(3)-W-L-Q-W-N-C(3)-P-(4-CMF)-D-CONH2] ({DOTA-Ahx}-SDCWLQWNCPY(Carboxymethyl)D-NH2; disulfide 3-9) is more than 100 nM.
